# Source: BindingDB's records for doi:10.1016/j.ejmech.2021.113986 (Yantai University, 2022)
# Experiments:
# Cytochrome P450 2C9 = Cytochrome P450 2C9 (Homo sapiens, UniProt P11712); test: Inhibition of CYP2C9 (unknown origin)
# [1] = molecular target: Potassium voltage-gated channel subfamily H member 2 (Homo sapiens, UniProt Q12809); test: Inhibition of human ERG expressed in CHO cells at holding potential of -80 mV by whole cell patch clamp assay
# Cytochrome P450 2C19 = Cytochrome P450 2C19 (Homo sapiens, UniProt P33261); test: Inhibition of CYP2C19 (unknown origin)
# Cytochrome P450 2C19, sequence (P33261 whole entry): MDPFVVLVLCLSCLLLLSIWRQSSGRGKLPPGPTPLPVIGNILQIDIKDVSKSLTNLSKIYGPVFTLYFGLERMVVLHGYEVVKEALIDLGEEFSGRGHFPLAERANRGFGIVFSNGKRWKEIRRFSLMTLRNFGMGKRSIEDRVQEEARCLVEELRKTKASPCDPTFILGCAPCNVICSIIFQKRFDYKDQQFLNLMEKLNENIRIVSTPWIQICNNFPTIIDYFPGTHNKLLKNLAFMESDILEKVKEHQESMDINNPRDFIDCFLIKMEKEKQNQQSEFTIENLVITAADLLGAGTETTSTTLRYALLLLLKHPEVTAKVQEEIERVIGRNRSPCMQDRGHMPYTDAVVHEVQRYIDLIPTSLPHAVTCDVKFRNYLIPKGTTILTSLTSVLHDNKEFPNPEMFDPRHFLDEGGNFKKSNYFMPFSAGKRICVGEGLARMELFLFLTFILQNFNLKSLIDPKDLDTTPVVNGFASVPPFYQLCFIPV
# Cytochrome P450 2C9, sequence (P11712 whole entry): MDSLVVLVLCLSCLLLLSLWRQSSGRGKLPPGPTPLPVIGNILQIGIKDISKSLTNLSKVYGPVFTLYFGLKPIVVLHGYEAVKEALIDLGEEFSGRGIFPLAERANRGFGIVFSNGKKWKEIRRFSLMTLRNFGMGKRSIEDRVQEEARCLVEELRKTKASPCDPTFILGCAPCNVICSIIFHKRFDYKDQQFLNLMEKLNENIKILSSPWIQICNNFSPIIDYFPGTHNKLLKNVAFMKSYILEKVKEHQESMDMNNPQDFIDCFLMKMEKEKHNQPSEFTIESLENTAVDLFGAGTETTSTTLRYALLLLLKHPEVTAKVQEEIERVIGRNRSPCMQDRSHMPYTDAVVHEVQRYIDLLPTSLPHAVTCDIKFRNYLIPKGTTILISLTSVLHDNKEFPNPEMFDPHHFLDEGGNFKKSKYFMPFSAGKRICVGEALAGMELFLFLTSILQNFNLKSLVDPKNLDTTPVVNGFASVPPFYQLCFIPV
# Potassium voltage-gated channel subfamily H member 2, sequence (Q12809 whole entry): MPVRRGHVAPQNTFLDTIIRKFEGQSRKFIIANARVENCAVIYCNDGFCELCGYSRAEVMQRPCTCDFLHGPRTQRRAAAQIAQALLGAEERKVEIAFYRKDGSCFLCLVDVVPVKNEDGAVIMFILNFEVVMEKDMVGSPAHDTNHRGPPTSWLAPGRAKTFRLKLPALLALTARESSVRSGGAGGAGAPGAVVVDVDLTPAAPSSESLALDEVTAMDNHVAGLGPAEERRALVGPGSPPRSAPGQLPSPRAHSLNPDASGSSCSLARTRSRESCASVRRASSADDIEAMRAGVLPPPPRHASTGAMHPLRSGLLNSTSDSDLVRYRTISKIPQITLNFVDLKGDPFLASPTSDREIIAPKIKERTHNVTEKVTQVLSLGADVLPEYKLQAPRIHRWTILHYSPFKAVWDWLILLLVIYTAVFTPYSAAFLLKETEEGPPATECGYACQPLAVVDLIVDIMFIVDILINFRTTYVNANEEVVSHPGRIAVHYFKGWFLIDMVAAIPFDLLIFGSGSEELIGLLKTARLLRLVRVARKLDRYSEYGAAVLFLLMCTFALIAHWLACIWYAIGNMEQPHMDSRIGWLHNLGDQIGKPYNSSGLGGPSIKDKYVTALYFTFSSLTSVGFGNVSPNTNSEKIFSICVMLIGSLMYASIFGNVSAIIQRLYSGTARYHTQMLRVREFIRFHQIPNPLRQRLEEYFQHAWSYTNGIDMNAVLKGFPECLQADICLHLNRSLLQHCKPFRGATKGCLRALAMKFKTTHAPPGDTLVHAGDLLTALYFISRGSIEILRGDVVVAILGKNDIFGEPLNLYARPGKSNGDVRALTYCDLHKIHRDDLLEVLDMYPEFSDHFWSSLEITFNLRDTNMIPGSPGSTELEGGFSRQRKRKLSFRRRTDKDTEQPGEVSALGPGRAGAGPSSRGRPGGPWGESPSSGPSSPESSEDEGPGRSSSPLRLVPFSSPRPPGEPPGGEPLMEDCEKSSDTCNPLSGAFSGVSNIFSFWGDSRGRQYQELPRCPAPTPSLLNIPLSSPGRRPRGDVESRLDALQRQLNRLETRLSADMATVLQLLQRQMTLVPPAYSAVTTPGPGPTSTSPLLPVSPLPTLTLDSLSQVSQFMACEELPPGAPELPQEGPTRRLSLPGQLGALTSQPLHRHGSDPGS
SMILES,IC50 (Cytochrome P450 2C9) [µM],IC50 [1] [µM],IC50 (Cytochrome P450 2C19) [µM]
"Fc1ccc([C@]2(CCNCc3cccc(Cl)c3)CCO[C@]3(CCOC3)C2)nc1 [US11124523, Example (+)-16]",> 50,,
"c1ccc([C@]2(CCNCc3scc4c3CCC4)CCO[C@]3(CCOC3)C2)nc1 [US11124523, Example (+)-2]",> 50,> 40,> 50
